The values that follow come from US20030100595A1, “Oral dosage form of a sulfonamide prodrug” (priority 2001, published 2003).

SMILES strings stand for the structures.

For series [1] the following is noted: background statement, in words; cited from earlier work.
The nature of series [2]: Human pharmacokinetic study: valdecoxib blood plasma concentration by HPLC. Format: in vivo. The protocol:
Subjects drank 180 ml water one, two and three hours postdose. […] Rapid onset is a highly desirable feature of many therapies for COX-2 mediated disorders, particularly those accompanied by acute pain. […] Each subject received each of three treatments, in randomized sequence, treatments being separated by 15 days. […] Following each treatment, subjects drank 180 ml water one, two and three hours after the treatment.

A further series addresses COX-1 (Homo sapiens, UniProt P23219). Particulars: background statement, in words; cited from earlier work.

COX-1, sequence (P23219 24-599): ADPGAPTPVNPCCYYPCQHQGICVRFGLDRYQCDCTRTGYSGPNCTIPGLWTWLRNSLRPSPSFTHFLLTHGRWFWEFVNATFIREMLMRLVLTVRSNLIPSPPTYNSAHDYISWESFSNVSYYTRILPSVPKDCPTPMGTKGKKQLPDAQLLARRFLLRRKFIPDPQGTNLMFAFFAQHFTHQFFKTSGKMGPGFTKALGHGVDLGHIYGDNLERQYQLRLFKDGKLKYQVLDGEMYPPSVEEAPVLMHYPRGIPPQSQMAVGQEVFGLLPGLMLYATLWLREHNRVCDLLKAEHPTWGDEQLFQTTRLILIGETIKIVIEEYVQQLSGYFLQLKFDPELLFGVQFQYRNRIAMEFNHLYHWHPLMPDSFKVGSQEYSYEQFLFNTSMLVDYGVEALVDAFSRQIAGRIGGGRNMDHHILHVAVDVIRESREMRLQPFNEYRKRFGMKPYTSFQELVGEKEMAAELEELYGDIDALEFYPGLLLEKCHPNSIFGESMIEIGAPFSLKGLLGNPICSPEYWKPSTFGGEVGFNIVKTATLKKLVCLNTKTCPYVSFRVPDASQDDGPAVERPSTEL

For `CCC(=O)NS(=O)(=O)c1ccc(-c2c(-c3ccccc3)noc2C)cc1` [parecoxib], the water solubility entry in series [1] is listed as “high”. The “conversion of parecoxib to valdecoxib” value in series [2] (administered orally to a human subject) is “rapidly and completely converted to valdecoxib”. The “in vitro inhibitory activity against COX-1” value at COX-1 was “weak”.

For orientation: Tmax means the time from dosing to the highest level. Broadly, the half-life is the time needed for the level to fall by half in the phase considered. `Cc1onc(-c2ccccc2)c1-c1ccc(S(N)(=O)=O)cc1` [valdecoxib]: the water solubility result in series [1] is reported as “substantially water-insoluble”. Besides, in series [2] (male, human, plasma, po, 20 mg), the Tmax came out at 3.11 h and the half-life is 461 ± 147 min. The “in vitro inhibitory activity against COX-1” value on COX-1 is on record as “weak”.
